The source of these data is ChEMBL document CHEMBL4806958, “Anti-cancer/anti-fibrosis compounds” (2020).

Assay [1] concerns the target Casein kinase II subunit alpha (Homo sapiens, UniProt P68400). Put plainly: Inhibition of CSNK2A1(unknown origin) using Ser/Thr 11 as substrate incubated for 60 mins in presence of ATP by Z'-LYTE assay.
For assay [2], the target named is Homeodomain-interacting protein kinase 2 (Homo sapiens, UniProt Q9H2X6). The assay can be described thus: Inhibition of HIPK2 (unknown origin) using Ser/Thr 09 as substrate incubated for 60 mins in presence of ATP by Z'-Lyte assay.
Sequence of Homeodomain-interacting protein kinase 2 (Q9H2X6 whole entry): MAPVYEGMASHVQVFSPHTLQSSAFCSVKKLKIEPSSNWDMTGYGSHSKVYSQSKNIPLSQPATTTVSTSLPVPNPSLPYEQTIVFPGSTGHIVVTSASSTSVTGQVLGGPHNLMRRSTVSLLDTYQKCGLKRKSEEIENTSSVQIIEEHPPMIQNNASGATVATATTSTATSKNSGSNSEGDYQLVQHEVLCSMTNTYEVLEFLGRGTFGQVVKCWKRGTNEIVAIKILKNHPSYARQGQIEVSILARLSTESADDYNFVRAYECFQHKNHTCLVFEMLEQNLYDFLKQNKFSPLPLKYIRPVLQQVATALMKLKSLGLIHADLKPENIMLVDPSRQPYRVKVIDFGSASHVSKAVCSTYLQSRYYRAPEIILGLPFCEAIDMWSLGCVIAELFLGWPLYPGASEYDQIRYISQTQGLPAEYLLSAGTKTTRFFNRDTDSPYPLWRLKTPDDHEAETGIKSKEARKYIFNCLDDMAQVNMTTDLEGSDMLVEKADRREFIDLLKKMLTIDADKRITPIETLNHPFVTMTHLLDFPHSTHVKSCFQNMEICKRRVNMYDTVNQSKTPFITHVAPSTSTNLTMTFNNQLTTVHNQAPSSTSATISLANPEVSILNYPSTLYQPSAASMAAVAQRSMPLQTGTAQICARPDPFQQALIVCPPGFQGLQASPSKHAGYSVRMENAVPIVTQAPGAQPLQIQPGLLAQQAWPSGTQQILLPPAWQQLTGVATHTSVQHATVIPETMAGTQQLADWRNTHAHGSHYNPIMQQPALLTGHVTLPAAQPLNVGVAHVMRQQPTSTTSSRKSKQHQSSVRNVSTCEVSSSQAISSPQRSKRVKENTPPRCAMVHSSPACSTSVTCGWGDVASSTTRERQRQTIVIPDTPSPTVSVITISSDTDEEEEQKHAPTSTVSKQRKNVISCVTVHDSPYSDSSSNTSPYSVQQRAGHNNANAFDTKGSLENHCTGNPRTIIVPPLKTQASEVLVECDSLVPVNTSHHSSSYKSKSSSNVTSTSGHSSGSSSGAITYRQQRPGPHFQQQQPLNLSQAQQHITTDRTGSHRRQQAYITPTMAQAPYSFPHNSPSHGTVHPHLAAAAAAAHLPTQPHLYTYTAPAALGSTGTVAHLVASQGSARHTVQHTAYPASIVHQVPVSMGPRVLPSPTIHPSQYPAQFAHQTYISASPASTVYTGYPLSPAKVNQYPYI

Sequence of Casein kinase II subunit alpha (P68400 whole entry): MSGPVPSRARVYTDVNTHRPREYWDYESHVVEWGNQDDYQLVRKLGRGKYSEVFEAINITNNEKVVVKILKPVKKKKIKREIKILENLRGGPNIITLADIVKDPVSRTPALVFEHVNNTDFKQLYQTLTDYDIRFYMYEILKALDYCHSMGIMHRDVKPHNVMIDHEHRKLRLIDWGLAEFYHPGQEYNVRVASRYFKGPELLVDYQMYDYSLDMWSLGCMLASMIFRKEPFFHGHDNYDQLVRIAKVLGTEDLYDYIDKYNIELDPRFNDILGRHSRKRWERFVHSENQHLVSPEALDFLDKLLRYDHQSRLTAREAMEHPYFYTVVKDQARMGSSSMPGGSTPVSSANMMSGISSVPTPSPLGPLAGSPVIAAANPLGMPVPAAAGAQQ

For orientation: IC50 means the midpoint of a concentration-inhibition curve. For the compound `CC(C)Nc1cc2cc(C(=O)O)ccc2c2cnccc12`, the IC50 in assay [1] is below 300 nM.
Regarding `N#Cc1cc2cc(C(=O)O)ccc2c2cnccc12`, in assay [1], the IC50 was below 300 nM.
In the case of `CCC(C)Nc1cc2cc(C(=O)O)ccc2c2cnccc12` (stereo unspecified), the IC50 in assay [1] was below 300 nM.
As to `O=C(O)c1ccc2c(c1)cc(NC1CC1)c1ccncc12`, the IC50 in assay [1] and in assay [2] was below 300 nM throughout.
As for `O=C(O)c1ccc2c(c1)cc(Cl)c1ccncc12`, the IC50 in assay [1] was below 300 nM.
On the same count and under the same terms, the result for `Cc1cc2cc(C(=O)O)ccc2c2cnccc12` reads below 300 nM; that for `O=C(O)c1ccc2c(c1)cc([N+](=O)[O-])c1ccncc12`, below 300 nM.
Turning to `O=C(O)c1ccc2c(c1)cc(Nc1ccc(Cl)cc1)c1ccncc12`, the IC50 in assay [1] was below 300 nM.
On to `Nc1nccc2cc(Br)c3cc(C(=O)O)ccc3c12`, for which the IC50 in assay [2] was below 300 nM.
With `Nc1ccc(-c2cc3cc(C(=O)O)ccc3c3cnccc23)cn1`, in assay [1], the IC50 is below 300 nM.
With `O=C(O)c1ccc2c(ccc3ccncc32)c1`, the IC50 in assay [1] is below 300 nM.
As to `O=C(O)c1ccc2c(c1)cc(Br)c1ccncc12`, the IC50 in assay [1] and in assay [2] was below 300 nM each time.
For the compound `O=C(O)c1ccc2c(c1)cc(-c1ccncc1)c1ccncc12`, the IC50 in assay [1] was below 300 nM.
In the case of `O=C(O)c1ccc2c(ccc3ccnc(Cl)c32)c1`, the IC50 in assay [1] is below 300 nM.
On to `CC[C@@H](C)Nc1cc2cc(C(=O)O)ccc2c2cnccc12`, for which the IC50 in assay [1] and in assay [2] was below 300 nM each time.
As to `O=C(O)c1ccc2c(c1)cc(NC1CCCC1)c1ccncc12`, the IC50 in assay [1] was below 300 nM.
As for `O=C(O)c1ccc2c(c1)cc(C1CC1)c1ccncc12`, the half-maximal inhibitory concentration (IC50) in assay [1] is below 300 nM.
As for `N[C@@H]1CCCN(c2cc3cc(C(=O)O)ccc3c3cnccc23)C1`, the IC50 in assay [1] was below 300 nM; in assay [2], above 5000 nM.
As to `O=C(O)c1ccc2c(c1)cc(-c1cccnc1)c1ccncc12`, the IC50 in assay [1] is below 300 nM.
Turning to `O=C(O)c1ccc2c(c1)cc(NC1CCC1)c1ccncc12`, in assay [1], the IC50 is below 300 nM.
On to `O=C(O)c1ccc2c(c1)cc(Br)c1cc(Cl)ncc12`, for which the IC50 in assay [2] is above 5000 nM.
Consider `O=C(O)c1ccc2c(c1)cc(Nc1cccc(Cl)c1)c1ccncc12`, for which, in assay [1], the IC50 is below 300 nM.
For the compound `O=C(O)c1ccc2c(c1)cc(Br)c1ccnc(Cl)c12`, in assay [1], the IC50 is below 300 nM.
Consider `CC[C@H](C)Nc1cc2cc(C(=O)O)ccc2c2cnccc12`, for which the IC50 in assay [1] was below 300 nM.
The same measure, in the same setting: then `O=C(O)c1ccc2c(c1)cc(-c1cc[nH]n1)c1ccncc12`, with below 300 nM.
On the same count and under the same terms, the result for `O=C(O)c1ccc2c(c1)cc(NC1CCCCC1)c1ccncc12` reads below 300 nM.
In the case of `O=C(O)c1ccc2c(c1)cc(N1CCCCC1)c1ccncc12`, in assay [1], the IC50 was below 300 nM.
